From patent US20060110743A1, “Drug evolution: drug design at hot spots” (priority 2004, published 2006)

Assay: UV absorbance (UV spectra), sunscreen properties
Type: physicochemical
From the text: FIG. 1 through 8 show UV spectra of 111 compounds sharing PABA “hot building block”, their 16 synthetic intermediates, and one compound with salicylic acid building block. Reference numerals identify compounds according to the numbering adopted in the Experimental section and elsewhere in the specification.
UV-B (290-320 nm) radiation is known to be harmful for human skin. Acute negative effects include inflammation, sunburns, pigmentation changes and hyperplasia. Chronic negative effects include photoaging, immunosuppression and photocarcinogenesis, including squamous cells, basal cells and melanoma skin cancer. The UV-B radiation is also responsible for 98% of cases of delayed erythema development.
Various sunscreen agents have been developed to protect human skin from this harmful UV-B radiation. One known class of such UV-B sunscreen agents is PABA and its various derivatives. Their UV-protecting properties are due to their strong UV absorbance (e266=15,000 for p-aminobenzoic acid). […] As such, these compounds are useful as sunscreen agents.

UV absorbance e266: 15,000
Compound: Nc1ccc(C(=O)O)cc1 [Compound (59), 4-Aminobenzoic acid]
